Measurements reported in PubChem BioAssay (NCI).
“And” between values parts separate entries of the source, which are not always exact repeats. Identical values can stand only once.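 All cell lines were grown in 96-well plates and treated with compound for 48 hours. The concentration for 50% growth inhibition is given as GI50. At the TGI there is no net growth.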

How the values were obtained:
Experiment in all cases: NCI tumour cell line growth inhibition, 48 h
[1] = test system: SK-OV-3 ovarian
[2] = test system: RXF 393 renal
[3] = test system: UACC-257 melanoma
[4] = test system: NCI-H522 lung
[5] = test system: TK-10 renal
[6] = test system: UO-31 renal
[7] = test system: SF-539 CNS
[8] = test system: OVCAR-5 ovarian
[9] = test system: NCI/ADR-RES ovarian
[10] = test system: SR leukemia

Row | Compound | TGI [1] | TGI [2] | TGI [3] | TGI [4] | TGI [5] | TGI [6] | GI50 [1] | GI50 [2] | GI50 [3] | GI50 [7] | TGI [7] | GI50 [5] | GI50 [8] | TGI [8] | GI50 [6] | GI50 [9] | TGI [9] | TGI [10] | GI50 [4] | GI50 [10]
1 | CC1=CCCC2C(C=O)(C1)CC(C)C2(CO)CC/C(=C/CO)CO (configuration not stated) | > 100 µM | > 100 µM | > 100 µM | > 100 µM | > 100 µM | 82.8 µM |  |  |  |  |  |  |  |  |  |  |  |  |  | 
2 | COc1cc2c3c(n(CCCNCCCN)c(=O)c2cc1OC)-c1cc2c(cc1C3=O)OCO2 | 92.9 µM | 16.8 µM | 23 µM |  | 27.9 µM | 38.5 µM | 11.2 µM | 3.91 µM | 7.31 µM | 1.17 µM | 10.6 µM | 9.74 µM | 2.94 µM | 12.6 µM | 15.4 µM | 22.9 µM | 98.7 µM |  |  | 
3 | CN(N)c1nc(N)c(C#N)c(C#N)c1C#N | > 10 µM |  | > 10 µM | > 10 µM | > 10 µM |  |  |  |  |  | > 10 µM |  |  | > 10 µM |  |  | > 10 µM | > 10 µM |  | 
4 | O/N=C/c1ccc(O)c(O)c1 | > 100 µM | > 100 µM | > 100 µM | > 100 µM | > 100 µM | > 100 µM |  |  |  |  | > 100 µM |  |  | > 100 µM |  |  |  | > 100 µM |  | 
5 | CC(=O)[CH-]C(=O)c1ccccc1.CC(=O)[CH-]C(=O)c1ccccc1.[O-]c1ccc2c(c1)OCO2.[O-]c1ccc2c(c1)OCO2.[Ti+4] | > 100 µM |  | > 100 µM | 42.1 µM |  | 94.3 µM | 30.1 µM |  | 44 µM | 28.4 µM | > 100 µM |  | 31.9 µM | > 100 µM | 35.9 µM |  |  |  | 16.5 µM | 
6 | O=C1N=C(Nc2nc(-c3csc(NC4=NC(=O)/C(=C\c5ccccc5)S4)n3)cs2)S/C1=C/c1ccccc1 |  | > 50 µM | 28.1 µM | > 50 µM | 33.3 µM | > 50 µM |  | 18.5 µM | 12.2 µM | 13.6 µM | 39.7 µM | 10.1 µM | 34 µM | > 50 µM | 17.5 µM | 15.9 µM | > 50 µM |  | 38.5 µM | 
7 | COc1ccc([C@@H]2OC(=O)C3C2C(=O)O[C@H]3c2ccc(OC)c(OC)c2)cc1OC (some centres not stated) | > 100 µM | > 100 µM | > 100 µM | > 100 µM | > 100 µM | > 100 µM |  |  |  |  | > 100 µM |  |  |  |  |  |  |  |  | 
8 | COc1ccc2c(c1)CN1CCc3c(cc(OC)c(OC)c3OC)C1C2 (configuration not stated) | > 100 µM | > 100 µM | > 100 µM | > 100 µM | > 100 µM | > 100 µM |  |  |  |  | > 100 µM |  |  | > 100 µM |  |  |  | > 100 µM |  | 
9 | C1=CCCC=CCC1.C[PH+](C)C.C[PH+](C)C.C[PH+](C)C.[Cl-].[Ir] | > 100 µM | > 100 µM | 59.1 µM | 60.1 µM | > 100 µM | > 100 µM | > 100 µM | > 100 µM | 23.2 µM | > 100 µM | > 100 µM | > 100 µM | > 100 µM | > 100 µM | > 100 µM |  |  |  | 26.4 µM | 
10 | N#CC1=C(N)NC(=O)NC12Nc1ccccc1N2 | > 100 µM | > 100 µM | > 100 µM | > 100 µM | > 100 µM |  | > 100 µM | > 100 µM | > 100 µM | > 100 µM | > 100 µM | > 100 µM | > 100 µM | > 100 µM |  | > 100 µM | > 100 µM |  | > 100 µM | 
11 | CC1SC(c2ccc(Cl)cc2Cl)N(NC(=O)C(O)c2ccccc2)C1=O (configuration not stated) | > 100 µM | > 100 µM | > 100 µM | > 100 µM | > 100 µM | > 100 µM | > 100 µM | 42.9 µM | 61.7 µM | > 100 µM | > 100 µM | 61.2 µM | > 100 µM | > 100 µM | 48.9 µM |  |  |  | 41.9 µM | 
12 | O=C1NC2C(O)CCCCC2C12CCCCC2 (configuration not stated) | > 100 µM | > 100 µM | > 100 µM | > 100 µM |  | > 100 µM |  |  |  |  | > 100 µM |  |  | > 100 µM |  |  |  |  |  | 
13 | C=C(C)[C@@H]1CC[C@]2(C(=O)NS(=O)(=O)c3ccccc3)CC[C@]3(C)[C@H](CC[C@@H]4[C@@]5(C)CC[C@H](OC(=O)NS(=O)(=O)c6ccccc6)C(C)(C)[C@@H]5CC[C@]43C)[C@@H]12 | 8.22 µM | 3.26 µM | 9.06 µM | 9.19 µM | 10.3 µM | 3.04 µM | 2.6 µM | 1.61 µM | 3.06 µM | 1.27 µM | 2.59 µM | 2.43 µM | 3.02 µM | 11.8 µM | 1.49 µM | 3.87 µM | 24 µM |  | 2.48 µM | 
14 | COC(=O)CC[C@]12C[C@]13CC[C@]1(C)C4C(C)C[C@]5(CC(C)C(=O)O5)OC4CC1(C)C3CCC2C(C)(C)O (some centres not stated) | > 100 µM | > 100 µM | > 100 µM | > 100 µM | > 100 µM | > 100 µM |  |  |  |  | > 100 µM |  |  | > 100 µM |  |  |  | > 100 µM |  | 
15 | COc1cc2cnc3c4cc(OCc5ccccc5)ccc4ccc3c2cc1OC | 56.8 µM | 47.6 µM | > 100 µM | > 100 µM | 44 µM | > 100 µM |  |  |  |  | > 100 µM |  |  | > 100 µM |  |  |  | 27.1 µM |  | 
16 | COC(=O)[C@H](Cc1cn(C)cn1)NC(=O)[C@H](Cc1ccccc1)NC(=O)Nc1cc(C(F)(F)F)cc(C(F)(F)F)c1 | 33.3 µM |  | 30.1 µM | 24.7 µM |  | 30.5 µM | 19.2 µM |  | 16.1 µM | 17.2 µM | 33 µM |  | 16.8 µM | 32.5 µM | 16.6 µM | 23.9 µM | 61.4 µM | 6.07 µM and 5.05 µM | 11.7 µM | 2.54 µM and 2.21 µM
17 | C=C1C[C@@H]2C[C@@H](C)CC(O)[C@]2(CCCN)C1O (some centres not stated) | > 100 µM | > 100 µM | > 100 µM | > 100 µM | > 100 µM | > 100 µM |  |  |  |  | > 100 µM |  |  | > 100 µM |  |  |  | > 100 µM |  | 
18 | CC1c2[nH]c3ccccc3c2CCN1O (configuration not stated) | > 100 µM | > 100 µM | > 100 µM | > 100 µM | > 100 µM | > 100 µM |  |  |  |  | > 100 µM |  |  | > 100 µM |  |  |  |  |  | 
